According to patent publication US8288315B2, “Fungicide mixtures” (BASF SE, priority 2007, dated 2012):

How the values were obtained:
Puccinia recondita = test: Protective activity against Puccinia recondita on wheat (brown rust of wheat); format: in vivo; conditions: wheat seedlings, sprayed 1 day before inoculation, rated after a further 7 days, efficacy as % of untreated control
Protocol: (§1) The mixture was then made up with water to 100 ml.
The next day, the treated plants were inoculated with a spore suspension of brown rust of wheat (Puccinia recondita). The plants were then placed in a chamber with high atmospheric humidity (90 to 95%) at 20 to 22° C. for 24 hours. During this time, the spores germinated and the germ tubes penetrated into the leaf tissue. The following day, the test plants were returned to the greenhouse and cultivated at temperatures between 20 and 22° C. and at 65 to 70% relative atmospheric humidity for a further 7 days. The extent of the rust fungus development on the leaves was then determined visually.
(§2) The visually determined percentages of infected leaf areas were converted into efficacies as % of the untreated control:
(§3) The efficacy (E) is calculated as follows using Abbot's formula: E=(1−α/β)·100 • α corresponds to the fungicidal infection of the treated plants in % and • β corresponds to the fungicidal infection of the untreated (control) plants in %
(§4) An efficacy of 0 means that the infection level of the treated plants corresponds to that of the untreated control plants; an efficacy of 100 means that the treated plants are not infected.

Botrytis cinerea = test: Activity against gray mold on bell pepper leaves caused by Botrytis cinerea, 1 day protective application; format: in vivo; conditions: bell pepper seedlings, sprayed 1 day before inoculation, rated after 5 days, efficacy as % of untreated control
Protocol: as §1
The next day, the treated plants were inoculated with a spore suspension of Botrytis cinerea in a 2% strength biomalt solution. The test plants were then placed in a dark climatized chamber at 22 to 24° C. and high atmospheric humidity. After 5 days, the extent of the fungal infection on the leaves could be determined visually in %.
as §2, §3, §4

| SMILES | Observed effect (%) (Puccinia recondita; 0.25 ppm) | Observed effect (%) (Botrytis cinerea; 0.016 ppm) | Observed effect (%) (Puccinia recondita; 4 ppm) | Observed effect (%) (Botrytis cinerea; 0.25 ppm) |
| --- | --- | --- | --- | --- |
| CC1(C)CCC(Cc2ccc(Cl)cc2)C1(O)Cn1cncn1 (stereo not drawn) [Metconazole, (1RS,5RS;1RS,5SR)-5-(4-chlorobenzyl)-2,2-dimethyl-1-(1H-1,2,4-triazol-1-ylmethyl)cyclopentanol] | 13% | 0% | – | – |
| CCCN(CCOc1c(Cl)cc(Cl)cc1Cl)C(=O)n1ccnc1 [Prochloraz, N-propyl-N-[2-(2,4,6-trichlorophenoxy)ethyl]imidazole-1-carboxamide] | – | – | 0% | 0% |
